# From patent publication US20240252428A1, “METHODS OF PROVIDING BIRTH CONTROL” (THE POPULATION COUNCIL, INC., priority 2021, published 2024)
# Legend:
# [1] = Drug-drug interaction study with vaginal miconazole formulations; format: in vivo; settings: for overall increase in exposure: with 1 day or 3-day oil-based miconazole suppository; for change in exposure from the vaginal system: with water-based vaginal miconazole cream
# Excerpt: However, the use of either the 1 day or the 3-day oil-based miconazole suppository was associated with an overall increase in exposure up to 67% for EE and 32% for SA. Considering the potential long-term effect on vaginal system performance, concurrent use of oil-based vaginal suppositories should not occur with the system's use. If there is a need to treat a vaginal condition, water-based vaginal cream or oral therapy may be used concurrently with the vaginal system.
# [2] = Recoverable SA and EE after storage; format: physicochemical; settings: for amount recoverable from the vaginal system: over 24 months of storage at 25° C. and 60% relative humidity
# Method: This was quite surprising as a similar trend was not observed during long-term stability studies on the cores before assembly.
# • Diluent: methanol/water 58/42 v/v • Dried NES and EE before weighing (100-105° C. 3 h) • EE stock solution: Dissolved 25.0 mg of EE and diluted to 250.0 mL with methanol (duplicates, EE1 and EE2) • NES stock solution: Dissolved 50.0 mg of NES and diluted to 100.0 mL with methanol (duplicates, NES1 and NES2) • Standard solutions: • S1: Diluted 5.0 mL of NES1 and 4.0 mL of EE1 to 50.0 mL with diluent • S2: Diluted 6.0 mL of NES2 and 5.0 mL of EE2 to 50.0 mL with diluent • S3: Diluted 8.0 mL of NES1 and 7.0 mL of EE1 to 50.0 mL with diluent • S4: Diluted 10.0 mL of NES2 and 9.0 mL of EE2 to 50.0 mL with diluent • System suitability solution (SST solution): Diluted 5.0 mL acetone+7.0 mL NES1+6.0 mL EE1 to 50.0 mL with diluent.
# Rings were cut into 8 pieces and each piece was divided lengthwise then transferred to an Erlenmeyer flask. • 140 mL of acetone (weight of flask was noted before and after acetone addition) was added to the flask.
# • analytical column: Discovery C8, 5 μm, 150×4.6 mm (Supelco) • pre-column: Supelguard, Discovery C8, 5 μm, 20×4.0 mm (Supelco) • stationary phase: endcapped C8 (5 μm particle size) USP L7 • temperature: 30° ° C. Mobile phase: methanol/water 58/42, isocratic elution Flow rate: 1.2 mL/min Detection (assay): NES UV 240 nm, EE UV 280 nm Detection (identity): PDA (photodiode array detector) scanning 220-310 nm, NES 240 nm, EE 280 nm
# Run time: 15 min System suitability: SST solution • Area precision (n=5): RSD (%)≤2.0 • Peak tailing (T): 0.8≤T≤1.5 • Blank injections: No interfering peaks Retention times: EE approximately 7 min and NES approximately 9 min Results Assay: Report the average value of three different rings and express as mg EE/ring and mg NES/ring. Results Content uniformity: Calculate the average value of ten different rings. Report with or without remarks according the guidelines outlined in the US Pharmacopeial Convention, incorporated herein by reference, and in particular USP <905>. […]
# [3] = PK study in females with BMI <25 vs BMI >25; format: in vivo, human; settings: 18 females BMI <25 vs 21 females BMI >25
# Excerpt: The vaginal system described herein has not been adequately evaluated in females with a body mass index of >29 kg/m2. […] Higher body weight associates with lower systemic exposure of SA and EE.
# [4] = PK sub-study of the vaginal system over 13 product-use cycles (21 days in/7 days out), serum SA and EE; format: in vivo, human; parameters: AUC0-21 day / AUC0-1 day: concentration or dose not given beside the values
# Method: The pharmacokinetics (PK) of the vaginal system described herein were determined during studies related to the prior approved use (i.e., 13 product-use cycles comprising a 21-day “product-in” period and a 7-day “product-out” period). Studies were conducted in 39 women who used the system for up to the 13 product-use cycles. […] Over subsequent product-use cycles, the peak serum concentrations of SA and EE declined.
# During a phase 3 trial of the vaginal ring system, three centers participated in a PK sub-study. The PK sub-study was an open-label, multicenter, non-randomized phase 1 study evaluating the PK and pharmacodynamics (PD) of a self-administered vaginal ring system. Enrolled women were healthy, aged 18-38 years, who had regular cycles of 28±7 days and were sexually active with no intention of becoming pregnant for the following 13 months. Exclusion criteria were those typical for oral contraceptive assessments. Women were not permitted to use hormonal contraceptives (other than the study vaginal ring) or vaginal lubricants that could have interfered with steroid absorption during the study.
# Women were instructed to use the SA/EE vaginal ring system for 13 consecutive cycles following a 21-days-in and 7-days-out regimen, with the initial ring insertion (day 1 of cycle 1) under investigator supervision at the study clinic. […] In the PK substudy, blood samples from each woman were collected 8 times (see below) per assessed cycles (1, 3, and 13) as per the protocol.
# For serum SA and EE measurements, blood samples were collected on treatment days 1-5, 8, 15, and 22 during cycles 1, 3, and 13 with the serum stored at −20° C. Steroid concentrations were determined at each time point using a validated gas chromatography/tandem mass spectrometry (GC-MS/MS; Taylor Technology, Princeton, NJ); the lower limits of quantification (LLOQ) were 50 pg/mL (135 pmol/L) for SA and 10 pg/mL (33.74 pmol/L) for EE. The linear calibration range was 50.0 to 5000 pg/mL for SA and 10.0 to 1000 pg/mL for EE. The inter-assay coefficient of variation for SA was 7-15.5% and for EE 8-13% for low, medium, and high-quality control samples used during assays. The intra-assay coefficient of variation for both SA and EE was lower than 12%.
# progesterone receptor = target: T1, progesterone receptor (Homo sapiens, UniProt P06401); test: Progesterone receptor activity of SA metabolites; format: biochemical
# T1 sequence (P06401 1-933): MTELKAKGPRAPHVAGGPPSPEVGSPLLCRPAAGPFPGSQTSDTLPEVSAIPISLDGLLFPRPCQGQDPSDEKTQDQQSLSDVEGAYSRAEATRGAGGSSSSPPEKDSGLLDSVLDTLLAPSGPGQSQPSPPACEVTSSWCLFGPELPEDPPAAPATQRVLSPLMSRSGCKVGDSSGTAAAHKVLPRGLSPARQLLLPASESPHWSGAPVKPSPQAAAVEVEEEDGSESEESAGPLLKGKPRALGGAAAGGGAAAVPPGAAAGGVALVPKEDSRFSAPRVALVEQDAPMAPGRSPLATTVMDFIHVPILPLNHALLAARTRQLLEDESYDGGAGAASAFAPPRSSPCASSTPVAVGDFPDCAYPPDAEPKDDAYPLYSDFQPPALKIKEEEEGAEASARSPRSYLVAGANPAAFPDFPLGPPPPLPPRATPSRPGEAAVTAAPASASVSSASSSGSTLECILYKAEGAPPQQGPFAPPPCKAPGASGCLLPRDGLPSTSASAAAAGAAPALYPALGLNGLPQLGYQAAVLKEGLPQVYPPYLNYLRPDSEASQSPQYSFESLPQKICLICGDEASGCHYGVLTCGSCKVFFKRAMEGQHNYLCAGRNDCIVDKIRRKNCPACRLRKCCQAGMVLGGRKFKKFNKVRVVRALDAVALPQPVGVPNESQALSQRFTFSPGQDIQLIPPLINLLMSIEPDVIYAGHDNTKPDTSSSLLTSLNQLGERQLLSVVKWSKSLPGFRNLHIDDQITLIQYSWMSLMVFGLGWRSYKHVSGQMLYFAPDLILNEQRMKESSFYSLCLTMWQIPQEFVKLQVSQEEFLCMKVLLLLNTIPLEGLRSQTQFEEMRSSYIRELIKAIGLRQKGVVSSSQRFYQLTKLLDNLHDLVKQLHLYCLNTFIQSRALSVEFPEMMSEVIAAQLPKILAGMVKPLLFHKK
# Excerpt: The hydroxylated EE metabolites have weak estrogenic activity.
# [5] = EE in serum, cycle 1, mean (SD)
# [6] = EE in serum, cycle 3, mean (SD)
# [7] = EE in serum, cycle 13, mean (SD)
smiles,measurement,setting,value
"C=C1C[C@H]2[C@@H]3CCC4=CC(=O)CC[C@@H]4[C@H]3CC[C@]2(C)[C@@]1(OC(C)=O)C(C)=O [SA, 16-methylene-17α-acetoxy-19-nor-pregn-4-ene-3,20-dione]",overall increase in exposure,[1],≤ 32%
same,change in exposure from the vaginal system,[1],no change
same,amount recoverable from the vaginal system,[2],remained essentially constant
same,decrease in systemic exposure (AUC 0-21 day) between the two BMI groups,[3],up to 16%
same,AUC0-21 day,"[4]; SA in serum, cycle 1, mean","259,740 pmol*hr/L"
same,Cavg,"[4]; SA in serum, cycle 1, mean",0.516 nM
same,Cmax,"[4]; SA in serum, cycle 1, mean",3.1 nM
same,AUC0-1 day,"[4]; SA in serum, cycle 1, mean (SD)","40,500 (8,640) pmol*hr/L"
same,AUC0-21 day,"[4]; SA in serum, cycle 3, mean","480,330 pmol*hr/L"
same,Cavg,"[4]; SA in serum, cycle 3, mean",0.3537 nM
same,Cmax,"[4]; SA in serum, cycle 3, mean",0.98 nM
same,AUC0-1 day,"[4]; SA in serum, cycle 3, mean (SD)","36,450 (4,320) pmol*hr/L"
same,AUC0-21 day,"[4]; SA in serum, cycle 13, mean","127,440 pmol*hr/L"
same,Cavg,"[4]; SA in serum, cycle 13, mean",0.254 nM
same,Cmax,"[4]; SA in serum, cycle 13, mean",0.794 nM
same,AUC0-1 day,"[4]; SA in serum, cycle 13, mean (SD)","10,530 (3,780) pmol*hr/L"
C=C1CC2C3CCC4CC(=O)CCC4C3CCC2(C)C1(OC(C)=O)C(C)=O (stereo not drawn) [5α-dihydro],"EC50 to progesterone receptor, fold higher than that of SA",progesterone receptor,10 fold
"C#C[C@]1(O)CC[C@H]2[C@@H]3CCc4cc(O)ccc4[C@H]3CC[C@@]21C [EE, 19-nor-17α-pregna-1,3,5(10)-trien-20-yne-3,17-diol]",overall increase in exposure,[1],up to 67%
same,change in exposure from the vaginal system,[1],no change
same,amount recoverable from the core by extraction,"[2]; cores before assembly, after extended storage",full amount of EE was found to be recoverable
same,amount recoverable from the vaginal system,[2],decreased in a time-dependent manner
same,decrease in systemic exposure (AUC 0-21 day) between the two BMI groups,[3],≤ 33%
same,Cavg,"[4]; EE in serum, cycle 1, mean",0.148 nM
same,Cmax,"[4]; EE in serum, cycle 1, mean",0.435 nM
same,AUC0-1 day,[4]; [5],"7,077 (2,359) pmol*hr/L"
same,AUC0-21 day,[4]; [5],"74,814 (33,026) pmol*hr/L"
same,Cavg,"[4]; EE in serum, cycle 3, mean",0.098 nM
same,AUC0-1 day,[4]; [6],"3,033 (1,348) pmol*hr/L"
same,AUC0-21 day,[4]; [6],"49,539 (15,839) pmol*hr/L"
same,Cavg,"[4]; EE in serum, cycle 13, mean",0.064 nM
same,AUC0-1 day,[4]; [7],"2,359 (1,011) pmol*hr/L"
same,AUC0-21 day,[4]; [7],"32,352 (13,817) pmol*hr/L"
same,Cmax,"[4]; female, human, serum, other: vaginal, EE in serum, cycle 3, mean",0.202 nM
same,Cmax,"[4]; female, human, serum, other: vaginal, EE in serum, cycle 13, mean",0.131 nM
same,Tmax,"[4]; female, human, serum, vaginal administration, product-use cycles 1, 3 and 13, read-out: median Tmax",~2 h
